# Laboratory results from patent US6313090A, “Methods for treating parasitic infection using thiopeptides” (The United States of America as represented by the …, priority 2000, dated 2001).
# System: C. parvum
# Assay: In vivo testing, SCID mice with acute C. parvum infection
# Design: species or system Cryptospordium parvum
# Procedure: SCID mice (Taconic Farms, Germantown, N.Y.), preconditioned with monoclonal antibodies to interferon as described (41), were given an acute infection of C. parvum (10^7 oocysts given orally). A total of five mice in two groups were used. One group received 500 mg/kg/day (in two doses of 250 mg/kg) of thiostrepton six days post-infection and the other group received a placebo. Treatment lasted ten days and oocyst shedding was measured by counting the number of oocysts in 30 fields under high power microscopy of acid-fast stained fecal smears and calculating the mean for each group as described (41). […] Mucosal scores describe the extent of mucosal infection detected in formalin-fixedsections of tissue samples from various gut sites (pyloric region of stomach, liver, gallbladder, mid-small intestine, terminal ileum, cecum and colon) taken during necropsy. Scoring was as follows: 0 (no infection) to 5 (maximal infection) and was expressed as the combined score of the number of gut sites examined.
structure (smiles),measurement,setting,value
"C=C(NC(=O)C(=C)NC(=O)c1csc(C2=N[C@@H]3c4csc(n4)[C@H]4NC(=O)c5csc(n5)[C@H]([C@](C)(O)[C@@H](C)O)NC(=O)[C@H]5CSC(=N5)/C(=C/C)NC(=O)[C@H]([C@@H](C)O)NC(=O)c5csc(n5)[C@]3(CC2)NC(=O)[C@H](C)NC(=O)C(=C)NC(=O)[C@H](C)NC(=O)[C@H]([C@@H](C)CC)N[C@@H]2C=Cc3c([C@H](C)O)cc(nc3[C@H]2O)C(=O)O[C@@H]4C)n1)C(N)=O [Thiostrepton, thiostrepton]",Mucosal score,"2 × 250 mg/kg, combined score of gut sites, 0 (no infection) to 5 (maximal infection) per site",9.8
same,oocyst shedding compared to placebo,"SCID mice, 500 mg/kg/day (two doses of 250 mg/kg), ten days, FIG. 1",significantly reduced oocyst shedding
same,"Oocyst shedding, % Inhib","last day of 10 day treatment, 2 × 250 mg/kg",78.9%
same,"Oocyst shedding, Mean","last day of 10 day treatment, 2 × 250 mg/kg, oocysts in 30 fields of fecal smears",11.2
